# Reference: ChEMBL document CHEMBL1201862, “PubChem BioAssay data set” (2004)
#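 Growth conditions: 96-well plates. Treatment: test compound, 48 hours, 5 concentrations. Analysis: linear interpolation between bracketing concentrations; unreached endpoints set to highest concentration. GI50 = concentration required for 50% inhibition of growth.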 Activity calls are given as the source filed them. No stated cut-off is given here; in the data, active = GI50 up to about 1.1 µM and inactive = higher.
# Columns and labels:
# Assay in all cases: NCI-60 cell line screen, 48 h
# MDA-MB-231 = tested on: MDA-MB-231
# SW-620 = tested on: SW-620
# NCI-H522 = tested on: NCI-H522
# NCI-H460 = tested on: NCI-H460
# HOP-18 = tested on: HOP-18
# NCI-H23 = tested on: NCI-H23
# MOLT-4 = tested on: MOLT-4
# SNB-19 = tested on: SNB-19
# UO-31 = tested on: UO-31
# SF-295 = tested on: SF-295
# UACC-62 = tested on: UACC-62
# U-251 = tested on: U-251
# SK-MEL-5 = tested on: SK-MEL-5
# SF-268 = tested on: SF-268
# COLO 205 = tested on: COLO 205
# Hs-578T = tested on: Hs-578T
# RXF 631 = tested on: RXF 631
# HCT-15 = tested on: HCT-15
# SR = tested on: SR
# XF498 = tested on: XF498
# CAKI-1 = tested on: CAKI-1
# DMS-273 = tested on: DMS-273
# Malme-3M = tested on: Malme-3M
# A498 = tested on: A498
# SK-MEL-28 = tested on: SK-MEL-28
# HT-29 = tested on: HT-29
# OVCAR-4 = tested on: OVCAR-4
# NCI/ADR-RES = tested on: NCI/ADR-RES
# KM-20L2 = tested on: KM-20L2
# TK-10 = tested on: TK-10
# HL-60 = tested on: HL-60
# UACC-257 = tested on: UACC-257
# CCRF-CEM = tested on: CCRF-CEM
# HOP-62 = tested on: HOP-62
# SF-539 = tested on: SF-539
# OVCAR-8 = tested on: OVCAR-8
# OVCAR-5 = tested on: OVCAR-5
# RPMI-8226 = tested on: RPMI-8226
# SK-MEL-2 = tested on: SK-MEL-2
# HCT-116 = tested on: HCT-116
# LXFL 529 = tested on: LXFL 529
# A549 = tested on: A549
# IGROV-1 = tested on: IGROV-1
# RXF 393 = tested on: RXF 393
# MDA-MB-435 = tested on: MDA-MB-435
# SN12C = tested on: SN12C
# MDA-N = tested on: MDA-N
# BT-549 = tested on: BT-549
# PC-3 = tested on: PC-3
# M19-MEL = tested on: M19-MEL
# HCC 2998 = tested on: HCC 2998
# SNB-78 = tested on: SNB-78
# LOX IMVI = tested on: LOX IMVI
# SK-OV-3 = tested on: SK-OV-3
# MCF7 = tested on: MCF7
# ACHN = tested on: ACHN
# DMS-114 = tested on: DMS-114
# K562 = tested on: K562
# EKVX = tested on: EKVX
# T47D = tested on: T47D
# KM12 = tested on: KM12
# DLD-1 = tested on: DLD-1
# DU-145 = tested on: DU-145
# M14 = tested on: M14
# OVCAR-3 = tested on: OVCAR-3
# NCI-H226 = tested on: NCI-H226
# 786-0 = tested on: 786-0
# SNB-75 = tested on: SNB-75
# HOP-92 = tested on: HOP-92
structure (smiles),measurement,setting,value
CCOC(=O)C(=O)NNc1nc2c(s1)C(=O)c1ccccc1C2=O,GI50,MDA-MB-231,2.48 µM (inactive)
same,GI50,SW-620,2.58 µM (inactive)
same,GI50,NCI-H522,4.49 µM (inactive)
same,GI50,NCI-H460,10.7 µM (inactive)
same,GI50,HOP-18,2.24 µM (inactive)
same,GI50,NCI-H23,2.24 µM (inactive)
same,GI50,MOLT-4,3.33 µM (inactive)
same,GI50,SNB-19,15.1 µM (inactive)
same,GI50,UO-31,2.29 µM (inactive)
same,GI50,SF-295,5.01 µM (inactive)
same,GI50,UACC-62,4.94 µM (inactive)
same,GI50,U-251,7.06 µM (inactive)
same,GI50,SK-MEL-5,1.86 µM (inactive)
same,GI50,SF-268,4.12 µM (inactive)
same,GI50,COLO 205,12.4 µM (inactive)
same,GI50,Hs-578T,2.87 µM (inactive)
same,GI50,RXF 631,11.2 µM (inactive)
same,GI50,HCT-15,2.54 µM
same,GI50,SR,0.465 µM (active)
same,GI50,XF498,2.09 µM (inactive)
same,GI50,CAKI-1,20.3 µM (inactive)
same,GI50,DMS-273,4.57 µM (inactive)
same,GI50,Malme-3M,1.95 µM (inactive)
same,GI50,A498,22.8 µM (inactive)
same,GI50,SK-MEL-28,3.06 µM (inactive)
same,GI50,HT-29,19.1 µM (inactive)
same,GI50,OVCAR-4,1.85 µM (inactive)
same,GI50,NCI/ADR-RES,1.87 µM (inactive)
same,GI50,KM-20L2,18.1 µM (inactive)
same,GI50,TK-10,24.5 µM (inactive)
same,GI50,HL-60,1.47 µM (inactive)
same,GI50,UACC-257,1.71 µM (inactive)
same,GI50,CCRF-CEM,2.34 µM (inactive)
same,GI50,HOP-62,10.8 µM (inactive)
same,GI50,SF-539,2.46 µM (inactive)
same,GI50,OVCAR-8,1.97 µM (inactive)
same,GI50,OVCAR-5,9.35 µM (inactive)
same,GI50,RPMI-8226,2.65 µM (inactive)
same,GI50,SK-MEL-2,3.95 µM (inactive)
same,GI50,HCT-116,2.68 µM (inactive)
same,GI50,LXFL 529,1.82 µM (inactive)
same,GI50,A549,6.07 µM (inactive)
same,GI50,IGROV-1,5.56 µM (inactive)
same,GI50,RXF 393,4.78 µM (inactive)
same,GI50,MDA-MB-435,1.77 µM (inactive)
same,GI50,SN12C,1.87 µM (inactive)
same,GI50,MDA-N,1.8 µM (inactive)
same,GI50,BT-549,10.9 µM (inactive)
same,GI50,PC-3,12 µM (inactive)
same,GI50,M19-MEL,0.544 µM (active)
same,GI50,HCC 2998,14.9 µM (inactive)
same,GI50,SNB-78,2.54 µM (inactive)
same,GI50,LOX IMVI,1.75 µM (inactive)
same,GI50,SK-OV-3,20 µM (inactive)
same,GI50,MCF7,15.6 µM (inactive)
same,GI50,ACHN,2.29 µM (inactive)
same,GI50,DMS-114,1.76 µM (inactive)
same,GI50,K562,2.3 µM (inactive)
same,GI50,EKVX,7.46 µM (inactive)
same,GI50,T47D,17.8 µM (inactive)
same,GI50,KM12,9.27 µM (inactive)
same,GI50,DLD-1,5.04 µM (inactive)
same,GI50,DU-145,17.7 µM (inactive)
same,GI50,M14,2.08 µM (inactive)
same,GI50,OVCAR-3,1.88 µM (inactive)
same,GI50,NCI-H226,15.7 µM (inactive)
same,GI50,786-0,10.6 µM (inactive)
same,GI50,SNB-75,3.65 µM (inactive)
same,GI50,HOP-92,10.5 µM (inactive)
O=C1CN=C(c2ccccc2)c2ccncc2N1,GI50,SW-620,> 100 µM (inactive)
same,GI50,NCI-H522,> 100 µM (inactive)
same,GI50,HOP-18,> 100 µM (inactive)
same,GI50,NCI-H23,> 100 µM (inactive)
same,GI50,MOLT-4,> 100 µM (inactive)
same,GI50,SNB-19,> 100 µM (inactive)
same,GI50,UO-31,> 100 µM (inactive)
same,GI50,SF-295,> 100 µM (inactive)
same,GI50,UACC-62,> 100 µM (inactive)
same,GI50,U-251,> 100 µM (inactive)
same,GI50,SK-MEL-5,> 100 µM (inactive)
same,GI50,SF-268,> 100 µM (inactive)
same,GI50,COLO 205,> 100 µM (inactive)
same,GI50,RXF 631,> 100 µM (inactive)
same,GI50,SR,> 100 µM (inactive)
same,GI50,XF498,> 100 µM (inactive)
same,GI50,CAKI-1,> 100 µM (inactive)
same,GI50,DMS-273,> 100 µM (inactive)
same,GI50,Malme-3M,> 100 µM (inactive)
same,GI50,A498,> 100 µM (inactive)
same,GI50,SK-MEL-28,> 100 µM (inactive)
same,GI50,HT-29,> 100 µM (inactive)
same,GI50,OVCAR-4,> 100 µM (inactive)
same,GI50,KM-20L2,> 100 µM (inactive)
same,GI50,TK-10,33.3 µM (inactive)
same,GI50,HL-60,> 100 µM (inactive)
same,GI50,UACC-257,26.6 µM (inactive)
same,GI50,CCRF-CEM,> 100 µM (inactive)
same,GI50,HOP-62,> 100 µM (inactive)
same,GI50,SF-539,> 100 µM (inactive)
same,GI50,OVCAR-8,> 100 µM (inactive)
same,GI50,OVCAR-5,> 100 µM (inactive)
same,GI50,SK-MEL-2,> 100 µM (inactive)
same,GI50,HCT-116,> 100 µM (inactive)
same,GI50,LXFL 529,> 100 µM (inactive)
same,GI50,A549,> 100 µM (inactive)
same,GI50,IGROV-1,> 100 µM (inactive)
same,GI50,RXF 393,> 100 µM (inactive)
same,GI50,SN12C,> 100 µM (inactive)
same,GI50,M19-MEL,> 100 µM (inactive)
same,GI50,HCC 2998,> 100 µM (inactive)
same,GI50,SNB-78,> 100 µM (inactive)
same,GI50,LOX IMVI,> 100 µM (inactive)
same,GI50,SK-OV-3,> 100 µM (inactive)
same,GI50,ACHN,> 100 µM (inactive)
same,GI50,DMS-114,> 100 µM (inactive)
same,GI50,K562,> 100 µM (inactive)
same,GI50,EKVX,> 100 µM (inactive)
same,GI50,KM12,16.2 µM (inactive)
same,GI50,DLD-1,> 100 µM (inactive)
same,GI50,M14,> 100 µM (inactive)
same,GI50,OVCAR-3,> 100 µM (inactive)
same,GI50,NCI-H226,> 100 µM (inactive)
same,GI50,786-0,> 100 µM (inactive)
same,GI50,SNB-75,> 100 µM (inactive)
same,GI50,HOP-92,> 100 µM (inactive)
